Data published in article PMC5218480 (PLoS ONE, 2017).

Test system: MV-4-11 cells
Experiment: Gene expression microarray analysis (Affymetrix PrimeView) and GSEA
Format: cell-based, human
Parameters: RFU PODN (11730768_x_at) / Fold change /veh PODN (11730768_x_at) / RFU LINC00158 (11744669_a_at) / Fold change /veh LINC00158 (11744669_a_at) / RFU DUSP10 (11751237_a_at) / Fold change /veh DUSP10 (11751237_a_at) / RFU ID3 (11757404_x_at) / Fold change /veh ID3 (11757404_x_at) / RFU PLEKHG5 (11737974_s_at) / Fold change /veh PLEKHG5 (11737974_s_at) / RFU LRRC4B (11730491_at) / Fold change /veh LRRC4B (11730491_at) / RFU GIMAP4 (11747438_a_at) / Fold change /veh GIMAP4 (11747438_a_at) / RFU KRT8 (11758183_x_at) / Fold change /veh KRT8 (11758183_x_at) / RFU CNN1 (11734310_a_at) / Fold change /veh CNN1 (11734310_a_at) / RFU VPS37D (11726825_at) / Fold change /veh VPS37D (11726825_at) / RFU C10orf10 (11716522_x_at) / Fold change /veh C10orf10 (11716522_x_at) / RFU KIR2DL2 /// KIR2DL4 /// KIR2DL5A /// KIR2DL5B /// KIR2DS1 /// KIR2DS2 /// KIR2DS3 /// KIR2DS4 /// KIR3DL3 /// KIR3DL3 /// KIR3DS1 (11738374_at) / Fold change /veh KIR2DL2 /// KIR2DL4 /// KIR2DL5A /// KIR2DL5B /// KIR2DS1 /// KIR2DS2 /// KIR2DS3 /// KIR2DS4 /// KIR3DL3 /// KIR3DL3 /// KIR3DS1 (11738374_at) / RFU C1QL1 (11718748_at) / Fold change /veh C1QL1 (11718748_at) / RFU TMPRSS4 (11747572_a_at) / Fold change /veh TMPRSS4 (11747572_a_at) / RFU HAMP (11756126_x_at) / Fold change /veh HAMP (11756126_x_at) / RFU RNFT2 (11725882_a_at) / Fold change /veh RNFT2 (11725882_a_at) / RFU NR4A2 (11747474_a_at) / Fold change /veh NR4A2 (11747474_a_at) / RFU ABCC12 (11746883_a_at) / Fold change /veh ABCC12 (11746883_a_at) / RFU TMEM136 (11760407_x_at) / Fold change /veh TMEM136 (11760407_x_at) / RFU CLDN22 /// WWC2 (11732394_at) / Fold change /veh CLDN22 /// WWC2 (11732394_at) / RFU HLA-DPB1 (11760878_x_at) / Fold change /veh HLA-DPB1 (11760878_x_at) / RFU SPINT1 (11716480_a_at) / Fold change /veh SPINT1 (11716480_a_at) / RFU GAP43 (11754022_s_at) / Fold change /veh GAP43 (11754022_s_at) / RFU A4GNT (11735810_at) / Fold change /veh A4GNT (11735810_at) / RFU PRB3 (11715151_x_at) / Fold change /veh PRB3 (11715151_x_at) / RFU TUBB4B (11761932_at) / Fold change /veh TUBB4B (11761932_at) / RFU CAPN14 (11732068_a_at) / Fold change /veh CAPN14 (11732068_a_at) / RFU TMCC2 (11721928_a_at) / Fold change /veh TMCC2 (11721928_a_at) / RFU IRGQ (11745062_a_at) / Fold change /veh IRGQ (11745062_a_at) / RFU FAM174B (11720279_a_at) / Fold change /veh FAM174B (11720279_a_at) / RFU TMPRSS4 (11748680_a_at) / Fold change /veh TMPRSS4 (11748680_a_at) / RFU FAM212B (11763350_a_at) / Fold change /veh FAM212B (11763350_a_at) / RFU PLEKHG5 (11743358_a_at) / Fold change /veh PLEKHG5 (11743358_a_at) / RFU ZSCAN30 (11745921_a_at) / Fold change /veh ZSCAN30 (11745921_a_at) / RFU CMKLR1 (11741424_a_at) / Fold change /veh CMKLR1 (11741424_a_at) / RFU LOC101060620 /// MAPK8IP1 (11723275_at) / Fold change /veh LOC101060620 /// MAPK8IP1 (11723275_at) / RFU SPTSSB (11747773_x_at) / Fold change /veh SPTSSB (11747773_x_at) / RFU PRSS12 (11739890_at) / Fold change /veh PRSS12 (11739890_at) / RFU BIN1 (11741810_x_at) / Fold change /veh BIN1 (11741810_x_at) / RFU WNT11 (11732464_a_at) / Fold change /veh WNT11 (11732464_a_at) / RFU C10orf10 (11716521_a_at) / Fold change /veh C10orf10 (11716521_a_at) / RFU C5orf56 (11738089_at) / Fold change /veh C5orf56 (11738089_at) / RFU CYB561 (11721691_x_at) / Fold change /veh CYB561 (11721691_x_at) / RFU ANKRD19P (11752326_a_at) / Fold change /veh ANKRD19P (11752326_a_at) / RFU OR2T12 /// OR2T33 /// OR2T8 (11738714_s_at) / Fold change /veh OR2T12 /// OR2T33 /// OR2T8 (11738714_s_at) / RFU VCAN (11748164_a_at) / Fold change /veh VCAN (11748164_a_at) / RFU JSRP1 (11732532_at) / Fold change /veh JSRP1 (11732532_at) / RFU KRTAP10-11 (11738290_x_at) / Fold change /veh KRTAP10-11 (11738290_x_at) / RFU MYO3A (11730013_a_at) / Fold change /veh MYO3A (11730013_a_at) / RFU EBF3 (11725865_a_at) / Fold change /veh EBF3 (11725865_a_at) / RFU CAMK2N1 (11719241_x_at) / Fold change /veh CAMK2N1 (11719241_x_at) / RFU C5orf56 (11738088_a_at) / Fold change /veh C5orf56 (11738088_a_at) / RFU OLFML3 (11715873_a_at) / Fold change /veh OLFML3 (11715873_a_at) / RFU LOC100653217 /// NTM (11731650_a_at) / Fold change /veh LOC100653217 /// NTM (11731650_a_at) / RFU MAPK11 (11762145_a_at) / Fold change /veh MAPK11 (11762145_a_at) / RFU FIZ1 (11724087_x_at) / Fold change /veh FIZ1 (11724087_x_at) / RFU OASL (11726364_x_at) / Fold change /veh OASL (11726364_x_at) / RFU SOX15 (11748057_x_at) / Fold change /veh SOX15 (11748057_x_at) / RFU CD79A (11719716_a_at) / Fold change /veh CD79A (11719716_a_at) / RFU HIST1H1D (11736915_at) / Fold change /veh HIST1H1D (11736915_at) / RFU CASKIN2 (11723855_a_at) / Fold change /veh CASKIN2 (11723855_a_at) / RFU LOC730098 (11760151_x_at) / Fold change /veh LOC730098 (11760151_x_at) / RFU OR4N2 (11742367_at) / Fold change /veh OR4N2 (11742367_at) / RFU PRRT2 (11749266_a_at) / Fold change /veh PRRT2 (11749266_a_at) / RFU SNX32 (11753110_a_at) / Fold change /veh SNX32 (11753110_a_at) / RFU CDHR5 (11726645_a_at) / Fold change /veh CDHR5 (11726645_a_at) / RFU RCAN1 (11760418_a_at) / Fold change /veh RCAN1 (11760418_a_at) / RFU FAM167A (11723789_a_at) / Fold change /veh FAM167A (11723789_a_at) / RFU FAM26E (11764081_at) / Fold change /veh FAM26E (11764081_at) / RFU ISYNA1 (11749810_s_at) / Fold change /veh ISYNA1 (11749810_s_at) / RFU ACY1 (11761880_at) / Fold change /veh ACY1 (11761880_at) / RFU 11764098_at / Fold change /veh 11764098_at / RFU SAMD14 (11745864_x_at) / Fold change /veh SAMD14 (11745864_x_at) / RFU NPB (11741838_a_at) / Fold change /veh NPB (11741838_a_at) / RFU TMPRSS6 (11731388_a_at) / Fold change /veh TMPRSS6 (11731388_a_at) / RFU KRTAP10-2 (11738614_at) / Fold change /veh KRTAP10-2 (11738614_at) / RFU ARHGAP8 /// PRR5-ARHGAP8 (11727945_x_at) / Fold change /veh ARHGAP8 /// PRR5-ARHGAP8 (11727945_x_at) / RFU KRTAP5-7 /// NADSYN1 (11734609_at) / Fold change /veh KRTAP5-7 /// NADSYN1 (11734609_at) / RFU RASL12 (11751679_a_at) / Fold change /veh RASL12 (11751679_a_at) / RFU CDKN2B (11736163_a_at) / Fold change /veh CDKN2B (11736163_a_at) / RFU PRF1 (11729649_at) / Fold change /veh PRF1 (11729649_at) / RFU, ZNF638 /// ZNF638-IT1 / Fold change vs veh, ZNF638 /// ZNF638-IT1 / RFU, PANK3 / Fold change vs veh, PANK3 / RFU, SH3YL1 / Fold change vs veh, SH3YL1 / RFU, ZEB2 / Fold change vs veh, ZEB2 / RFU, NRIP1 / Fold change vs veh, NRIP1 / RFU, PTTG1IP / Fold change vs veh, PTTG1IP / RFU, CAPN2 / Fold change vs veh, CAPN2 / RFU, MED14 / Fold change vs veh, MED14 / RFU, SNORA58 / Fold change vs veh, SNORA58 / RFU, C1orf63 / Fold change vs veh, C1orf63 / RFU, LRRFIP1 / Fold change vs veh, LRRFIP1 / RFU, NDUFAF7 / Fold change vs veh, NDUFAF7 / RFU, SLC12A2 / Fold change vs veh, SLC12A2 / RFU, IBTK / Fold change vs veh, IBTK / RFU, ESF1 / Fold change vs veh, ESF1 / Fold change vs veh, TMEM50B / RFU, TAOK1 / Fold change vs veh, TAOK1 / RFU, ACBD3 / Fold change vs veh, ACBD3 / RFU, TMA16 / Fold change vs veh, TMA16 / RFU, RWDD3 / Fold change vs veh, RWDD3 / RFU, BCAT1 / Fold change vs veh, BCAT1 / RFU, EDEM3 / Fold change vs veh, EDEM3 / RFU, TMEM33 / Fold change vs veh, TMEM33 / RFU, WDR75 / Fold change vs veh, WDR75 / RFU, AHCTF1 / Fold change vs veh, AHCTF1 / RFU, TFRC / Fold change vs veh, TFRC / RFU, ZDHHC17 / Fold change vs veh, ZDHHC17 / RFU, NOM1 / Fold change vs veh, NOM1 / RFU, ARL8B / Fold change vs veh, ARL8B / RFU, ZBTB11 / Fold change vs veh, ZBTB11 / RFU, TAMM41 / Fold change vs veh, TAMM41 / RFU, KIAA1704 /// LOC100996395 / Fold change vs veh, KIAA1704 /// LOC100996395 / RFU, ING1 / Fold change vs veh, ING1 / RFU, TRMT61B / Fold change vs veh, TRMT61B / RFU, FUBP3 / Fold change vs veh, FUBP3 / RFU, TP53 / Fold change vs veh, TP53 / RFU, TNKS2 / Fold change vs veh, TNKS2 / RFU, ZFP14 / Fold change vs veh, ZFP14 / RFU, ACTR2 / Fold change vs veh, ACTR2 / RFU, PPP3R1 / Fold change vs veh, PPP3R1 / RFU, PIK3R1 / Fold change vs veh, PIK3R1 / RFU, HNRNPA1 / Fold change vs veh, HNRNPA1 / RFU, RNF170 / Fold change vs veh, RNF170 / RFU, ZNF28 / Fold change vs veh, ZNF28 / RFU, RNGTT / Fold change vs veh, RNGTT / RFU, OGT / Fold change vs veh, OGT / RFU, BRD1 / Fold change vs veh, BRD1 / RFU, MARS / Fold change vs veh, MARS / RFU, ZNF655 / Fold change vs veh, ZNF655 / RFU, FAHD1 / Fold change vs veh, FAHD1 / RFU, BDP1 / Fold change vs veh, BDP1 / RFU, LRRCC1 / Fold change vs veh, LRRCC1 / RFU, ARID1A / Fold change vs veh, ARID1A / RFU, ZNF146 / Fold change vs veh, ZNF146 / RFU, ZNF330 / Fold change vs veh, ZNF330 / RFU, GPN3 / Fold change vs veh, GPN3 / RFU, C9orf123 / Fold change vs veh, C9orf123 / RFU, N4BP2L2 / Fold change vs veh, N4BP2L2 / RFU, ARFIP1 / Fold change vs veh, ARFIP1 / RFU, FAM179B / Fold change vs veh, FAM179B / RFU, BCL10 / Fold change vs veh, BCL10 / RFU, UHRF1BP1L / Fold change vs veh, UHRF1BP1L / RFU, BET1 / Fold change vs veh, BET1 / RFU, CNOT2 / Fold change vs veh, CNOT2 / RFU, ZNF268 / Fold change vs veh, ZNF268 / Fold change vs veh, ZNF507 / RFU, DGCR2 / Fold change vs veh, DGCR2 / RFU, WDSUB1 / Fold change vs veh, WDSUB1 / Fold change vs veh, HSP90B1 /// MIR3652 / RFU, ADSS / Fold change vs veh, ADSS / RFU, GK / Fold change vs veh, GK / RFU, ZNF148 / Fold change vs veh, ZNF148 / RFU, TAF9 / Fold change vs veh, TAF9 / RFU, SLC1A5 / Fold change vs veh, SLC1A5 / RFU, SLMO2 / Fold change vs veh, SLMO2 / RFU, ABCC4 / Fold change vs veh, ABCC4 / RFU, LOC101060439 /// RAP1B / Fold change vs veh, LOC101060439 /// RAP1B / RFU, RFX7 / Fold change vs veh, RFX7 / RFU, GTPBP10 / Fold change vs veh, GTPBP10 / RFU, CNEP1R1 / Fold change vs veh, CNEP1R1 / RFU, BIVM-ERCC5 /// ERCC5 / Fold change vs veh, BIVM-ERCC5 /// ERCC5 / RFU, ILF3 / Fold change vs veh, ILF3 / RFU 11762660_at / Fold change /veh 11762660_at / RFU VCAN (11757783_s_at) / Fold change /veh VCAN (11757783_s_at) / RFU DDX43 (11728927_at) / Fold change /veh DDX43 (11728927_at) / RFU KRT8 (11758188_x_at) / Fold change /veh KRT8 (11758188_x_at) / RFU NKD1 (11759106_at) / Fold change /veh NKD1 (11759106_at) / RFU SRD5A1 (11742802_a_at) / Fold change /veh SRD5A1 (11742802_a_at) / RFU TPSAB1 /// TPSB2 (11721975_s_at) / Fold change /veh TPSAB1 /// TPSB2 (11721975_s_at) / RFU GSTM3 (11746129_a_at) / Fold change /veh GSTM3 (11746129_a_at) / RFU IL23R (11737362_x_at) / Fold change /veh IL23R (11737362_x_at) / RFU TMEM51 (11727254_a_at) / Fold change /veh TMEM51 (11727254_a_at) / RFU PIWIL2 (11732686_x_at) / Fold change /veh PIWIL2 (11732686_x_at) / RFU ORM1 (11744905_x_at) / Fold change /veh ORM1 (11744905_x_at) / RFU CCDC152 (11743942_at) / Fold change /veh CCDC152 (11743942_at) / RFU ECM1 (11717891_a_at) / Fold change /veh ECM1 (11717891_a_at) / RFU IL23R (11748794_a_at) / Fold change /veh IL23R (11748794_a_at) / RFU TNFAIP8L3 (11732012_x_at) / Fold change /veh TNFAIP8L3 (11732012_x_at) / RFU MBOAT4 (11741988_at) / Fold change /veh MBOAT4 (11741988_at) / RFU 11764193_at / Fold change /veh 11764193_at / RFU TMEM53 (11763286_at) / Fold change /veh TMEM53 (11763286_at) / RFU MAGEB2 (11727129_at) / Fold change /veh MAGEB2 (11727129_at) / RFU TMEM200A (11744735_a_at) / Fold change /veh TMEM200A (11744735_a_at) / RFU CCDC152 (11751479_a_at) / Fold change /veh CCDC152 (11751479_a_at) / RFU FAM211A (11726209_a_at) / Fold change /veh FAM211A (11726209_a_at) / RFU RGS16 (11746705_a_at) / Fold change /veh RGS16 (11746705_a_at) / RFU VCAN (11755009_s_at) / Fold change /veh VCAN (11755009_s_at) / RFU RHOB (11743442_s_at) / Fold change /veh RHOB (11743442_s_at) / RFU RGS16 (11720943_a_at) / Fold change /veh RGS16 (11720943_a_at) / RFU RGS16 (11720944_at) / Fold change /veh RGS16 (11720944_at) / RFU, VPS4B / Fold change vs veh, VPS4B / RFU, CREB1 / Fold change vs veh, CREB1 / RFU, DNAJC13 / Fold change vs veh, DNAJC13 / RFU, GNAQ / Fold change vs veh, GNAQ / RFU, CDK5R1 / Fold change vs veh, CDK5R1 / RFU, ZRANB3 / Fold change vs veh, ZRANB3 / RFU, CUL4A / Fold change vs veh, CUL4A / RFU, CCNY / Fold change vs veh, CCNY / RFU, UFL1 / Fold change vs veh, UFL1 / RFU, COG3 / Fold change vs veh, COG3 / RFU, DIAPH2 / Fold change vs veh, DIAPH2 / RFU, SKA2 / Fold change vs veh, SKA2 / RFU, AFF3 / Fold change vs veh, AFF3 / RFU, LMF1 / Fold change vs veh, LMF1 / RFU, IPO11 / Fold change vs veh, IPO11 / RFU, DFFB / Fold change vs veh, DFFB / RFU, FOXP1 / Fold change vs veh, FOXP1 / RFU, CARD8 / Fold change vs veh, CARD8 / RFU, STRN3 / Fold change vs veh, STRN3 / RFU, ADK / Fold change vs veh, ADK / RFU, RASSF2 / Fold change vs veh, RASSF2 / RFU, WIPF1 / Fold change vs veh, WIPF1 / RFU, LARP1B / Fold change vs veh, LARP1B / RFU, RASA1 / Fold change vs veh, RASA1 / RFU, RB1 / Fold change vs veh, RB1 / RFU, PPFIA1 / Fold change vs veh, PPFIA1 / RFU, MAT2A / Fold change vs veh, MAT2A / RFU, CCT5 / Fold change vs veh, CCT5 / RFU, WDR92 / Fold change vs veh, WDR92 / RFU, CUX1 / Fold change vs veh, CUX1 / RFU, TTC7A / Fold change vs veh, TTC7A / RFU, TMEM135 / Fold change vs veh, TMEM135 / RFU, DEPTOR / Fold change vs veh, DEPTOR / RFU, CPM / Fold change vs veh, CPM / RFU, DNAJB6 / Fold change vs veh, DNAJB6 / RFU, CACNA2D3 / Fold change vs veh, CACNA2D3 / RFU, DTX4 / Fold change vs veh, DTX4 / RFU, TFCP2 / Fold change vs veh, TFCP2 / RFU, GMCL1 /// GMCL1P1 / Fold change vs veh, GMCL1 /// GMCL1P1 / RFU, AEBP2 / Fold change vs veh, AEBP2 / RFU, SNHG1 /// SNORD22 /// SNORD25 /// SNORD26 /// SNORD27 /// SNORD28 /// SNORD29 /// SNORD31 / Fold change vs veh, SNHG1 /// SNORD22 /// SNORD25 /// SNORD26 /// SNORD27 /// SNORD28 /// SNORD29 /// SNORD31 / Fold change (Aza/veh), C12orf56 (ProbeSet 11735607_a_at) / Fold change (ACY-1035/veh), C12orf56 (ProbeSet 11735607_a_at) / Fold change (Aza/veh), FGFR1OP (ProbeSet 11751329_s_at) / Fold change (ACY-1035/veh), FGFR1OP (ProbeSet 11751329_s_at) / Fold change (Aza/veh), VPS36 (ProbeSet 11739960_a_at) / Fold change (ACY-1035/veh), VPS36 (ProbeSet 11739960_a_at) / RFU SYPL1 (11715823_x_at) / Fold change /veh SYPL1 (11715823_x_at) / RFU IGFBP7 (11715501_s_at) / Fold change /veh IGFBP7 (11715501_s_at) / RFU REEP3 (11722064_at) / Fold change /veh REEP3 (11722064_at) / RFU IGLL1 (11728026_x_at) / Fold change /veh IGLL1 (11728026_x_at): dose or concentration left out as unconfirmed
Conditions: ProbeSet 11738335_x_at; LIST B

With Nc1ncn([C@@H]2O[C@H](CO)[C@@H](O)[C@H]2O)c(=O)n1 [azacitidine] as the compound, how does the “Fold change vs veh, TP53” value read?
Its value is 0.89.
